Laboratory results: ChEMBL document CHEMBL1124620, “New 1,4-dihydropyridine derivatives combining calcium antagonism and alpha-adrenolytic properties” (J Med Chem, 1989)

Columns and labels:
[1] = molecular target: T1, Adrenergic receptor alpha-2 (Rattus norvegicus, UniProt P22086+P19328+P22909); assay: Alpha-2-adrenolytic activity was assessed from the ability to inhibit [3H]yohimbine binding to rat cerebral cortex preparation; assay type: tissue-based
T1 sequence (P22086 whole entry): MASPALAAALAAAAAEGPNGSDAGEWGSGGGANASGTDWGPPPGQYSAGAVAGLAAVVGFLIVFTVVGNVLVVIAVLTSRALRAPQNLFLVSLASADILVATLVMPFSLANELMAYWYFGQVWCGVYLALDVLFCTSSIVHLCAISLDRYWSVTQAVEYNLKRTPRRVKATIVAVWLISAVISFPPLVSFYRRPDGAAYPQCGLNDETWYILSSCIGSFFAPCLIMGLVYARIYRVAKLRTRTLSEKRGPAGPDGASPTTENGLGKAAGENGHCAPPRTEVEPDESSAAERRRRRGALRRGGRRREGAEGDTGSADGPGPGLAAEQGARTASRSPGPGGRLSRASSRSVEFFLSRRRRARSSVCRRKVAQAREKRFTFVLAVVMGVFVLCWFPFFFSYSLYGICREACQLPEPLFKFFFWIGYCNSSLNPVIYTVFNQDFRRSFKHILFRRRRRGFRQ
T1 sequence (P19328 whole entry): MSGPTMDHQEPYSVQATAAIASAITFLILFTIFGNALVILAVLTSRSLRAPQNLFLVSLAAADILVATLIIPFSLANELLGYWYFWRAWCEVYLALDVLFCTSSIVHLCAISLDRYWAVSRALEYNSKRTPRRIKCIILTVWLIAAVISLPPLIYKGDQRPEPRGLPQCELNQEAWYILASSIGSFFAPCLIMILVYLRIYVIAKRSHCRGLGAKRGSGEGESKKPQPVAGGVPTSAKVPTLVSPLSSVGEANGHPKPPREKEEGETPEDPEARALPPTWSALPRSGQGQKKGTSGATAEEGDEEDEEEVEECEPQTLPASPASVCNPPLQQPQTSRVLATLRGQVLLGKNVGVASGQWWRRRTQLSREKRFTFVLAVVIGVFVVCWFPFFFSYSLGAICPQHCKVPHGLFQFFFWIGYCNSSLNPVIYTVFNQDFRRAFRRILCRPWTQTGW
T1 sequence (P22909 whole entry): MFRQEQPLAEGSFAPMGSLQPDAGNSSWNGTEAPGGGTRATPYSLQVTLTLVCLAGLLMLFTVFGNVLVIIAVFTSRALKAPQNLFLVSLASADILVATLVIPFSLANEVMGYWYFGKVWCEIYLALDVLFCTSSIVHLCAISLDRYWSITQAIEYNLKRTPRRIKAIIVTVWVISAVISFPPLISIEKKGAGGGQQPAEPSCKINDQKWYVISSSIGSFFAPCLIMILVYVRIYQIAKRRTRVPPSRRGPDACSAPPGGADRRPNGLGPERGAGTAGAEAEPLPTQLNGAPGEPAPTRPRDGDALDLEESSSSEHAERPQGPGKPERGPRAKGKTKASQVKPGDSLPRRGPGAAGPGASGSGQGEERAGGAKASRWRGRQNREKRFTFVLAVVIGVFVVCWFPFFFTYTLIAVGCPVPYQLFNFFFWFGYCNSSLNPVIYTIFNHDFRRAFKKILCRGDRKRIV

[2] = molecular target: T2, Adrenergic receptor alpha-1 (Rattus norvegicus, UniProt P15823+P23944+P43140); assay: Alpha-1-adrenolytic activity was assessed from the ability to inhibit [3H]prazosin binding to rat cerebral cortex preparation; assay type: tissue-based
T2 sequence (P15823 whole entry): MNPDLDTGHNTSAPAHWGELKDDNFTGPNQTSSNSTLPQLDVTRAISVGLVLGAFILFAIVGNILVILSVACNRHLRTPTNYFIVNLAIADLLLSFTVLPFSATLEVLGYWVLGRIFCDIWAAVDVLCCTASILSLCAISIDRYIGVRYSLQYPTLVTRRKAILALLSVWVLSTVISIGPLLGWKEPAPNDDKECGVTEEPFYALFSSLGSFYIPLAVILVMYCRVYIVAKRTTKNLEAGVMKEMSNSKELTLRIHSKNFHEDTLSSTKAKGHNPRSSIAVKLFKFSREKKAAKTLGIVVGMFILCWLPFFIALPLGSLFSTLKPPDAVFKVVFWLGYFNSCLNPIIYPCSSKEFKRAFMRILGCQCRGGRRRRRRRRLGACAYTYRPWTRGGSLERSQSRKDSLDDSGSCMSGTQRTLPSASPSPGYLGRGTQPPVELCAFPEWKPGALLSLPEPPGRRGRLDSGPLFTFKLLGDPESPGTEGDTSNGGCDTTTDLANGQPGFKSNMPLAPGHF
T2 sequence (P23944 whole entry): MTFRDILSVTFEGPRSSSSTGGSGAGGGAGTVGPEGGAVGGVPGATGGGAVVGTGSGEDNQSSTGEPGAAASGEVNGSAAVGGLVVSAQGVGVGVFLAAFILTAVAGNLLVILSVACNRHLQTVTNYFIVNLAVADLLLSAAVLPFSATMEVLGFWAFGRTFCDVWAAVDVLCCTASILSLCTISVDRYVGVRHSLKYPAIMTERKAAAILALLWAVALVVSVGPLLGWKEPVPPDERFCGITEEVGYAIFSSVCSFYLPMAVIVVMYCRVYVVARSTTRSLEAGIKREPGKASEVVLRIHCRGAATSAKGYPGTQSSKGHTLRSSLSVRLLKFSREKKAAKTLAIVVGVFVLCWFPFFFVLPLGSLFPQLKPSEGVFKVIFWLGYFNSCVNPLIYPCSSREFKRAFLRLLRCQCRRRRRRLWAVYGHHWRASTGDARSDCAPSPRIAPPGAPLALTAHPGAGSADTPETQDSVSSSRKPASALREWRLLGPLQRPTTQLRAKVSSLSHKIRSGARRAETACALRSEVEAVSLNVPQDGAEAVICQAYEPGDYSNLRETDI
T2 sequence (P43140 whole entry): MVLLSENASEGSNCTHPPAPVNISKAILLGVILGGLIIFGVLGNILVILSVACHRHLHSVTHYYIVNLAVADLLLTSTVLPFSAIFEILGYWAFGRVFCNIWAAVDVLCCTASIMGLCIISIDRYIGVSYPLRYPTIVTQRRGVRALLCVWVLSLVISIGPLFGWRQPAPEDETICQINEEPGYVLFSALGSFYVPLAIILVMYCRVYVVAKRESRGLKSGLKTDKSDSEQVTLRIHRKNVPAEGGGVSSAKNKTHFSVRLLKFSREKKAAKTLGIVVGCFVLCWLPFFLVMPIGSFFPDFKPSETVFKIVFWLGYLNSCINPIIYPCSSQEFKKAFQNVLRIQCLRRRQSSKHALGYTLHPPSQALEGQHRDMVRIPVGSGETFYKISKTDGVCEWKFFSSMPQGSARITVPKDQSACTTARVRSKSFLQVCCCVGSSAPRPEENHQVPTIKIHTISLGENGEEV

[3] = molecular target: T2, Adrenergic receptor alpha-1; assay: Alpha-1-adrenolytic activity was assessed in vitro from the ability to inhibit norepinephrine-induced contraction of rat aorta preparation
[4] = organism: Sus scrofa; assay: Calcium antagonistic activity was evaluated from the inhibition of CaCl2-induced contraction of depolarized pig coronary artery; assay type: functional; settings: Sus scrofa, Coronary artery
[5] = organism: Rattus norvegicus; assay: Calcium antagonistic activity was evaluated by in vitro inhibition of [3H]nitrendipine binding on rat cerebral cortex; assay type: functional

| Compound | IC50 [1] | IC50 [2] | IC50 [3] | IC50 [4] | IC50 [5] |
| --- | --- | --- | --- | --- | --- |
| COC(=O)C1=C(C)NC(C)=C(C(=O)OCCN(C)C[C@H]2COc3ccccc3O2)[C@@H]1c1cccc([N+](=O)[O-])c1.Cl (racemic) | 210 nM | 1900 nM | 0.00003 M |  |  |
| CO/C(O)=C1\C(C)=NC(C)=C(C(=O)OCCN(C)C[C@@H]2COc3ccccc3O2)[C@H]1c1cccc([N+](=O)[O-])c1.Cl | 19000 nM | 2000 nM | >> 0.00001 M | 2.5 nM | 1 nM |
| COc1cc2nc(N3CCN(C(=O)c4ccco4)CC3)nc(N)c2cc1OC [PRAZOSIN] |  |  |  |  | 3000 nM |

Further lines, results first:

| IC50 [1] | IC50 [2] | IC50 [3] | IC50 [4] | IC50 [5] | Compound |
| --- | --- | --- | --- | --- | --- |
| 830 nM | 3500 nM | >> 0.00003 M | 4 nM | 0.06 nM | CC1=NC(C)=C(C(=O)OCCN(C)CC2COc3ccccc3O2)C(c2cccc([N+](=O)[O-])c2)/C1=C(\O)OC(C)C.Cl (centres undefined) |
| 1400 nM | 3600 nM | > 0.00001 M | 0.3 nM | 0.026 nM | COC(=O)C1=C(C)NC(C)=C(C(=O)OCCN(C)Cc2ccccc2)C1c1cccc([N+](=O)[O-])c1 (centres undefined) [NICARDIPINE] |
